Measured values taken from patent US10906938B2, “Cell epitopes and combination of cell epitopes for use in the immunotherapy of myeloma and other cancers” (Immatics Biotechnologies GmbH, priority 2015, dated 2021).

System: MM.1S cells
Test: HLA class I ligand presentation upon carfilzomib treatment on MM.1S cells (LC-MS/MS)
Format: cell-based, human
Parameters: key to modulation upon carfilzomib-treatment 24 #1 / modulation upon carfilzomib-treatment 24 #2 / modulation upon carfilzomib-treatment 24 #3 / modulation upon carfilzomib-treatment 48 #1 / modulation upon carfilzomib-treatment 48 #2 / modulation upon carfilzomib-treatment 48 #3: −1: significantly down-modulated; 0: not signifcant/not detected; 1: significantly up-modulated
Conditions: MM.1S cells; for modulation upon carfilzomib-treatment 24 #1 / modulation upon carfilzomib-treatment 24 #2 / modulation upon carfilzomib-treatment 24 #3: 24 h after carfilzomib treatment (100 nM, 1 h); for modulation upon carfilzomib-treatment 24 #1 / modulation upon carfilzomib-treatment 48 #1: biological replicate #1; for modulation upon carfilzomib-treatment 24 #1 / modulation upon carfilzomib-treatment 24 #2 / modulation upon carfilzomib-treatment 24 #3 / modulation upon carfilzomib-treatment 48 #1 / modulation upon carfilzomib-treatment 48 #2 / modulation upon carfilzomib-treatment 48 #3: vs mock-treated controls; for modulation upon carfilzomib-treatment 24 #2 / modulation upon carfilzomib-treatment 48 #2: biological replicate #2; for modulation upon carfilzomib-treatment 24 #3 / modulation upon carfilzomib-treatment 48 #3: biological replicate #3; for modulation upon carfilzomib-treatment 48 #1 / modulation upon carfilzomib-treatment 48 #2 / modulation upon carfilzomib-treatment 48 #3: 48 h after carfilzomib treatment (100 nM, 1 h); for modulation of peptide presentation upon carfilzomib treatment: 24 h after carfilzomib treatment
Procedure: HLA class I and II molecules were isolated using standard immunoaffinity purification as described using the pan-HLA class I specific mAb W6/32, the pan-HLA class II specific mAb T039 and the HLA-DR specific mAB L243 (produced in house).
HLA ligand extracts were analyzed in 5 technical replicates as described previously. In brief, peptide samples were separated by nanoflow HPLC (RSLCnano, ThermoFisher) using a 50 μm×25 cm PepMap RSLC column (Thermo Fisher) and a gradient ranging from 2.4 to 32.0% acetonitrile over the course of 90 min. Eluting peptides were analyzed in an online coupled LTQ Orbitrap XL mass spectrometer (Thermo Fisher) using a top 5 CID (collision induced dissociation) fragmentation method.
Data processing was performed as described previously. In brief, the Mascot search engine (Mascot 2.2.04; Matrix Science, London, UK) was implemented to search the human proteome as comprised in the Swiss-Prot database (20,279 reviewed protein sequences, September 2013) without enzymatic restriction. Potential mutated HLA ligands were searched implementing a database containing the human proteome concatenated with proteins containing single amino acid variants (SAVs) listed in the COSMIC database (http://cancer.sanger.ac.uk/cosmic/). Only recurrent SAVs described in 2 or more samples of hematological origin were included. Oxidized methionine was allowed as a dynamic modification. The false discovery rate was estimated using the Percolator algorithm and set to 5%. Peptide lengths were limited to 8-12 amino acids for HLA class I and 12-25 amino acids for HLA class II. Protein inference was disabled, allowing for multiple protein annotations of peptides. HLA annotation was performed using SYFPEITHI [46] or an extended in-house database. Experimental validation of peptide identifications and HLA annotations was performed by mass spectrometric and functional characterization of synthetic peptides for a subset of peptides.
The inventors quantitatively assessed HLA class I ligand presentation during proteasome inhibitor therapy. Observed was a considerable plasticity of the HLA class I ligandome after treatment with carfilzomib with 17.9±1.1% of MM.1S ligands and 11.2±0.7% of U266 ligands (mean of three biological replicates ±s.d.) showing significant modulation (fold-change ≥4, Po0.01 after Benjamini-Hochberg correction) at t24 h compared with mock-treated controls. Briefly, Cultured MCLs (MM.1S and U266) and primary myeloma samples were incubated with carfilzomib (100 nM, Kyprolis®, available, e.g., from Onyx Pharmaceuticals, Inc.) as an example for a proteasome inhibitor for a 1-h period, followed by three washes in PBS (Gibco) and recultured for additional 24 or 48 h. Controls were incubated with vehicle control (glucose 5%) for 1 h, followed by identical washing and incubation for 24 or 48 h. Experiments were conducted in three biological replicates where indicated.

NEVIMTIGF
modulation upon carfilzomib-treatment 24 #1: 0 | modulation upon carfilzomib-treatment 24 #2: 0 | modulation upon carfilzomib-treatment 24 #3: 0 | modulation upon carfilzomib-treatment 48 #1: 0 | modulation upon carfilzomib-treatment 48 #2: 1 | modulation upon carfilzomib-treatment 48 #3: 0

RYSTQIHSF
modulation upon carfilzomib-treatment 24 #1: 0 | modulation upon carfilzomib-treatment 24 #2: 0 | modulation upon carfilzomib-treatment 24 #3: 0 | modulation upon carfilzomib-treatment 48 #1: 0 | modulation upon carfilzomib-treatment 48 #2: 0 | modulation upon carfilzomib-treatment 48 #3: 0

RPHGGKSL
modulation upon carfilzomib-treatment 24 #1: 0 | modulation upon carfilzomib-treatment 24 #2: 0 | modulation upon carfilzomib-treatment 24 #3: 0 | modulation upon carfilzomib-treatment 48 #1: 0 | modulation upon carfilzomib-treatment 48 #2: 0 | modulation upon carfilzomib-treatment 48 #3: 0

YYLNEIQSF [SEQ ID NO: 228]
modulation of peptide presentation upon carfilzomib treatment: no significant modulation

VPLPPKGRVL
modulation upon carfilzomib-treatment 24 #1: 0 | modulation upon carfilzomib-treatment 24 #2: 0 | modulation upon carfilzomib-treatment 24 #3: 0 | modulation upon carfilzomib-treatment 48 #1: 0 | modulation upon carfilzomib-treatment 48 #2: 0 | modulation upon carfilzomib-treatment 48 #3: 0

RYSPVLSRF
modulation upon carfilzomib-treatment 24 #1: 0 | modulation upon carfilzomib-treatment 24 #2: 0 | modulation upon carfilzomib-treatment 24 #3: 0 | modulation upon carfilzomib-treatment 48 #1: 0 | modulation upon carfilzomib-treatment 48 #2: 0 | modulation upon carfilzomib-treatment 48 #3: 0

TFLPFIHTI
modulation upon carfilzomib-treatment 24 #1: 0 | modulation upon carfilzomib-treatment 24 #2: 0 | modulation upon carfilzomib-treatment 24 #3: 0 | modulation upon carfilzomib-treatment 48 #1: 0 | modulation upon carfilzomib-treatment 48 #2: 0 | modulation upon carfilzomib-treatment 48 #3: 0

TASPLVKSV
modulation upon carfilzomib-treatment 24 #1: 0 | modulation upon carfilzomib-treatment 24 #2: 0 | modulation upon carfilzomib-treatment 24 #3: 0 | modulation upon carfilzomib-treatment 48 #1: 0 | modulation upon carfilzomib-treatment 48 #2: 1 | modulation upon carfilzomib-treatment 48 #3: 0

RYFKGPELL
modulation upon carfilzomib-treatment 24 #1: 0 | modulation upon carfilzomib-treatment 24 #2: 0 | modulation upon carfilzomib-treatment 24 #3: 0 | modulation upon carfilzomib-treatment 48 #1: 0 | modulation upon carfilzomib-treatment 48 #2: 0 | modulation upon carfilzomib-treatment 48 #3: 0

NEFPVFDEF
modulation upon carfilzomib-treatment 24 #1: 0 | modulation upon carfilzomib-treatment 24 #2: 0 | modulation upon carfilzomib-treatment 24 #3: 0 | modulation upon carfilzomib-treatment 48 #1: 0 | modulation upon carfilzomib-treatment 48 #2: 0 | modulation upon carfilzomib-treatment 48 #3: 0

LAFPGEMLL (listed as Homo sapiens) [SEQ ID NO: 107]
modulation of peptide presentation upon carfilzomib treatment: no significant modulation

LAFPGEMLL
modulation upon carfilzomib-treatment 24 #1: 0 | modulation upon carfilzomib-treatment 24 #2: 0 | modulation upon carfilzomib-treatment 24 #3: 0 | modulation upon carfilzomib-treatment 48 #1: 0 | modulation upon carfilzomib-treatment 48 #2: 0 | modulation upon carfilzomib-treatment 48 #3: 0

YVFPGVTRL
modulation upon carfilzomib-treatment 24 #1: 0 | modulation upon carfilzomib-treatment 24 #2: 0 | modulation upon carfilzomib-treatment 24 #3: 0 | modulation upon carfilzomib-treatment 48 #1: −1 | modulation upon carfilzomib-treatment 48 #2: 0 | modulation upon carfilzomib-treatment 48 #3: 0
